Results from the NIST ThermoML archive (doi:10.1021/acs.jced.8b01250).
Numbers after ± are expanded uncertainties.

What was measured:
[1] = Crystal; DSC
[2] = Molar enthalpy of transition or fusion; conditions: Crystal; DSC

Triple point temperature [1]: 435.55 ± 1.2 K
Molar enthalpy of transition or fusion [2]: 4.59 ± 0.194 kcal/mol
SMILES: N#Cc1cccc([N+](=O)[O-])c1C#N [3-nitrophthalonitrile]
